Data from PubChem BioAssay (NCI).
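96-well plates; 48 h exposure; 5 concentrations. Endpoints by linear interpolation between flanking doses. Not reached: highest tested concentration assigned. TGI denotes the concentration required for complete inhibition of growth.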

How the values were obtained:
Test in all cases: NCI tumour cell line growth inhibition, 48 h
[1] = system: NCI-H23 lung
[2] = system: UACC-62 melanoma
[3] = system: SR leukemia
[4] = system: 786-0 renal
[5] = system: SF-539 CNS
[6] = system: MOLT-4 leukemia
[7] = system: SNB-78 CNS
[8] = system: OVCAR-4 ovarian
[9] = system: CCRF-CEM leukemia
[10] = system: HL-60(TB) leukemia
[11] = system: SN12C renal
[12] = system: KM20L2 colon
[13] = system: SF-295 CNS
[14] = system: IGROV1 ovarian
[15] = system: NCI-H460 lung
[16] = system: HT29 colon
[17] = system: HCC-2998 colon
[18] = system: TK-10 renal
[19] = system: SNB-19 CNS
[20] = system: SK-MEL-28 melanoma
[21] = system: LOX IMVI melanoma
[22] = system: K-562 leukemia
[23] = system: DMS 114 small cell lung
[24] = system: M19-MEL melanoma
[25] = system: EKVX NSCLC
[26] = system: HOP-62 NSCLC
[27] = system: HCT-116 colon
[28] = system: DMS 273 small cell lung
[29] = system: SF-268 CNS
[30] = system: HCT-15 colon
[31] = system: OVCAR-3 ovarian
[32] = system: OVCAR-8 ovarian
[33] = system: NCI-H522 lung
[34] = system: SNB-75 CNS
[35] = system: LXFL 529 NSCLC
[36] = system: U251 CNS
[37] = system: UO-31 renal
[38] = system: OVCAR-5 ovarian
[39] = system: XF 498 CNS
[40] = system: RXF 393 renal
[41] = system: NCI-H226 lung
[42] = system: KM12 colon
[43] = system: ACHN renal
[44] = system: SK-MEL-5 melanoma
[45] = system: DLD-1 colon
[46] = system: A549 NSCLC
[47] = system: M14 melanoma
[48] = system: RXF-631 renal
[49] = system: COLO 205 colon
[50] = system: SK-MEL-2 melanoma
[51] = system: SW-620 colon
[52] = system: RPMI-8226 leukemia
[53] = system: A498 renal
[54] = system: MALME-3M melanoma
[55] = system: UACC-257 melanoma
[56] = system: HOP-18 NSCLC
[57] = system: SK-OV-3 ovarian
[58] = system: CAKI-1 renal
[59] = system: MDA-MB-231 breast
[60] = system: MDA-MB-435
[61] = system: MDA-N
[62] = system: BT-549 breast
[63] = system: DU-145 prostate
[64] = system: PC-3 prostate
[65] = system: HS 578T breast
[66] = system: T-47D breast
[67] = system: HOP-92 NSCLC
[68] = system: NCI/ADR-RES ovarian

C=C(C)C1CC[C@]2(C(=O)O)CCC3(C)[C@H](CCC4[C@@]5(C)CC[C@H](OC6OC(CO)C(O)C6OC6OC(C)C(O)C(O)C6O)[C@@](C)(CO)C5CC[C@]43C)C12 (stereo partly specified)
TGI [1]: > 100 µM | TGI [2]: > 100 µM | TGI [3]: > 100 µM | TGI [4]: > 100 µM | TGI [5]: > 100 µM | TGI [6]: > 100 µM | TGI [7]: > 100 µM | TGI [8]: > 100 µM | TGI [9]: > 100 µM | TGI [10]: > 100 µM | TGI [11]: > 100 µM | TGI [12]: > 100 µM | TGI [13]: > 100 µM | TGI [14]: > 100 µM | TGI [15]: > 100 µM | TGI [16]: > 100 µM | TGI [17]: > 100 µM | TGI [18]: > 100 µM | TGI [19]: > 100 µM | TGI [20]: > 100 µM | TGI [21]: > 100 µM | TGI [22]: > 100 µM | TGI [23]: > 100 µM | TGI [24]: > 100 µM | TGI [25]: > 100 µM | TGI [26]: > 100 µM | TGI [27]: > 100 µM | TGI [28]: > 100 µM | TGI [29]: > 100 µM | TGI [30]: > 100 µM | TGI [31]: > 100 µM | TGI [32]: > 100 µM | TGI [33]: > 100 µM | TGI [34]: > 100 µM | TGI [35]: > 100 µM | TGI [36]: > 100 µM | TGI [37]: > 100 µM | TGI [38]: > 100 µM | TGI [39]: > 100 µM | TGI [40]: > 100 µM | TGI [41]: > 100 µM | TGI [42]: > 100 µM | TGI [43]: > 100 µM | TGI [44]: > 100 µM | TGI [45]: > 100 µM | TGI [46]: > 100 µM | TGI [47]: > 100 µM | TGI [48]: > 100 µM | TGI [49]: > 100 µM | TGI [50]: > 100 µM | TGI [51]: > 100 µM

COc1ccc(-c2c(N)[n+]([O-])c3cc(C)c(C)cc3[n+]2[O-])cc1OC
TGI [1]: > 100 µM | TGI [2]: > 100 µM | TGI [4]: > 100 µM | TGI [5]: > 100 µM | TGI [6]: > 100 µM | TGI [52]: > 100 µM | TGI [7]: > 100 µM | TGI [8]: > 100 µM | TGI [9]: > 100 µM | TGI [10]: > 100 µM | TGI [53]: > 100 µM | TGI [11]: > 100 µM | TGI [12]: > 100 µM | TGI [13]: > 100 µM | TGI [14]: > 100 µM | TGI [15]: > 100 µM | TGI [16]: > 100 µM | TGI [17]: > 100 µM | TGI [18]: > 100 µM | TGI [19]: > 100 µM | TGI [20]: > 100 µM | TGI [21]: > 100 µM | TGI [22]: > 100 µM | TGI [23]: 67.8 µM | TGI [24]: > 100 µM | TGI [25]: > 100 µM | TGI [26]: > 100 µM | TGI [54]: > 100 µM | TGI [28]: > 100 µM | TGI [29]: > 100 µM | TGI [30]: > 100 µM | TGI [31]: > 100 µM | TGI [55]: > 100 µM | TGI [32]: > 100 µM | TGI [33]: 37.8 µM | TGI [34]: > 100 µM | TGI [56]: > 100 µM | TGI [35]: > 100 µM | TGI [36]: > 100 µM | TGI [37]: > 100 µM | TGI [38]: > 100 µM | TGI [39]: > 100 µM | TGI [41]: > 100 µM | TGI [57]: > 100 µM | TGI [42]: > 100 µM | TGI [43]: > 100 µM | TGI [44]: 74.3 µM | TGI [45]: > 100 µM | TGI [46]: > 100 µM | TGI [47]: > 100 µM | TGI [58]: > 100 µM | TGI [48]: 38.8 µM | TGI [49]: 50.3 µM | TGI [50]: > 100 µM | TGI [51]: > 100 µM

C=C1C(=O)C=C2C=C3C(=O)C(C)(C)C[C@]3(O)C12C (stereo partly specified)
TGI [1]: 12.9 µM | TGI [2]: 17.8 µM | TGI [3]: 2.28 µM | TGI [4]: 3.41 µM | TGI [5]: > 57.5 µM | TGI [6]: 2.28 µM | TGI [52]: 3.2 µM | TGI [7]: 21 µM | TGI [8]: 12.7 µM | TGI [9]: 1.37 µM | TGI [10]: 2.54 µM | TGI [53]: 23.2 µM | TGI [59]: 7.59 µM | TGI [11]: 23.9 µM | TGI [13]: 45.7 µM | TGI [14]: 36.5 µM | TGI [60]: 32.6 µM | TGI [15]: 38.2 µM | TGI [16]: 11.1 µM | TGI [17]: 34.4 µM | TGI [18]: 3.42 µM | TGI [19]: 44.5 µM | TGI [20]: 6.76 µM | TGI [21]: 11 µM | TGI [22]: 3.98 µM | TGI [23]: 3.61 µM | TGI [24]: 11.3 µM | TGI [25]: 51.2 µM | TGI [26]: 53.3 µM | TGI [61]: 13.5 µM | TGI [54]: 3.65 µM | TGI [27]: 9 µM | TGI [62]: 3.05 µM | TGI [28]: 14 µM | TGI [29]: 28.2 µM | TGI [30]: 11.7 µM | TGI [31]: 4.49 µM | TGI [55]: 9.13 µM | TGI [32]: 29.3 µM | TGI [33]: 3.38 µM | TGI [34]: 31.4 µM | TGI [63]: 33.9 µM | TGI [35]: 2.64 µM | TGI [36]: 34 µM | TGI [37]: 14 µM | TGI [38]: 21.4 µM | TGI [39]: 3.56 µM | TGI [40]: 3.33 µM | TGI [41]: 45.6 µM | TGI [57]: 38.1 µM | TGI [42]: 32.1 µM | TGI [43]: 4.53 µM | TGI [64]: 10.2 µM | TGI [65]: 43.8 µM | TGI [44]: 19 µM | TGI [66]: 5.98 µM | TGI [46]: 40.4 µM | TGI [67]: 3.24 µM | TGI [47]: 3.04 µM | TGI [58]: 3.99 µM | TGI [48]: 30.9 µM | TGI [49]: 3.53 µM | TGI [50]: 33.2 µM | TGI [51]: 3.23 µM | TGI [68]: > 100 µM
